Data set [1] relates to MDA-MB-231. In words: Antiproliferative activity against human MDA-MB-231 cells assessed as reduction in cell viability incubated for 72 hrs by MTT assay. The format is functional, cell-based. The note with it: MDA-MB-231, 72 h. On the technique in general: Tetrazolium assays rely on reduction of a dye to a coloured formazan, in cell work by metabolically active cells.
In another data set the test system is 4T1. Nature of the data set: Antiproliferative activity against mouse 4T1 cells assessed as reduction in cell viability incubated for 72 hrs by MTT assay. The format is functional, cell-based. The note with it: 4T1, 72 h.
A short description of data set [2]: Cytotoxicity against human MCF-10A cells assessed as reduction in cell viability incubated for 72 hrs by MTT assay. The class given is toxicity, cell-based.
A short description of data set [3]: Selectivity index, ratio of IC50 for cytotoxicity against human MCF-10A cells to IC50 for antiproliferative activity against human MDA-MB-231 cells. The note with it: MCF-10A cells versus MDA-MB-231 cells, read-out: Ratio IC50. The class given is toxicity, cell-based.
Data set [4] is described as follows: Toxicity in ip dosed mouse assessed as body weight loss. The class given is organism-based. The note with it: in vivo.
Data set [5] can be described thus: Toxicity in ip dosed mouse assessed as appearance of messy furs. The class given is organism-based. Particulars: in vivo.
Data set [6] can be described thus: Toxicity in ip dosed mouse assessed as appearance of loose gray stool. The class given is organism-based. Particulars: in vivo.
Data set [7] is described as follows: Toxicity in mouse assessed as animal death at >6 mg/kg, ip. The format is organism-based. Particulars: in vivo.
Data set [8] in a line: Toxicity in ip dosed mouse assessed as lethal dose. The format is organism-based. Particulars: in vivo.
Data set [9] deals with MDA-MB-231. Nature of the data set: Induction of NO release in human MDA-MB-231 cells assessed NO concentration by Griess reagent based assay. The class given is functional.
The test system of data set [10] is MDA-MB-231. In words: Antitumor activity against human MDA-MB-231 cells xenografted in nude mouse assessed as reduction in tumor size at 5 mg/kg, ip administered for 30 days. Particulars: time 30.0 day. The class given is functional, organism-based. A general note: In xenograft studies the graft and the host belong to different species.
Data set [11] deals with MDA-MB-231. In words: Antitumor activity against human MDA-MB-231 cells xenografted in nude mouse assessed as reduction in tumor weight at 5 mg/kg, ip administered for 30 days. The format is functional, organism-based. Particulars: time 30.0 day.
Data set [12] relates to MDA-MB-231. Nature of the data set: Induction of ferroptosis in human MDA-MB-231 cells xenografted in nude mouse assessed as reduction in GPX4 level at 5 mg/kg, ip administered for 30 days by immunohistochemistry analysis. The class given is functional, organism-based. The note with it: time 30.0 day.

As usually defined, the IC50 is the concentration that inhibits the measured activity by half. By LD50 is commonly meant the dose at which mortality reaches 50%.

Active and inactive are the calls of the source. The calls are words filed in the database; no cut-off is given here.

Consider `CC[C@H]1O[C@@]2(C)[C@H](OC(C)=O)[C@@]1(C)O[C@@H](/C=C/C=C/C=C/c1oc(=O)cc(OC)c1C)[C@@H]2O`, for which the IC50 in the data set with MDA-MB-231 [1] amounted to 2170 nM; in the data set with 4T1, 3340 nM. In addition, the IC50 at 72 h in data set [2] was above 50000 nM. Moreover, the selectivity ratio in data set [3] was above 23. The Activity entry in [4], in data set [5], in data set [6] and in [7] was “Toxic” each time. In [8], the LD50 came out at 12 mg/kg.
For the molecule `CC[C@H]1O[C@@]2(C)[C@H](OC(C)=O)[C@@]1(C)O[C@@H](/C=C/C=C/C=C/c1oc(=O)cc(OC)c1C)[C@H]2OC(=O)CCC(=O)OCCCCCOc1no[n+]([O-])c1S(=O)(=O)c1ccccc1`, the IC50 in the data set on MDA-MB-231 [1] came out at 600 nM; in the data set with 4T1, 1120 nM. Besides, in data set [2], the half-maximal inhibitory concentration (IC50) at 72 h is above 50000 nM. Further, the selectivity ratio in data set [3] is above 83. The molecule also showed an Activity in the data set with MDA-MB-231 [9] of 4.6 µM.
For the molecule `COc1cccc2c1C(=O)c1c(O)c3c(c(O)c1C2=O)C[C@@](O)(C(=O)CO)C[C@@H]3O[C@H]1C[C@H](N)[C@@H](O)[C@H](C)O1`, the outcome in the data set with MDA-MB-231 [10] and in the data set with MDA-MB-231 [11] was Active. In the data set on MDA-MB-231 [12], the outcome was inactive.
With `O=S(=O)(c1ccccc1)c1no[n+]([O-])c1S(=O)(=O)c1ccccc1`, the IC50 came out at 1090 nM in the data set on MDA-MB-231 [1] and 2140 nM in the data set with 4T1. Besides, the half-maximal inhibitory concentration (IC50) at 72 h in [2] amounted to 3800 nM. In [3], the selectivity ratio was determined as 3.1. In the data set with MDA-MB-231 [9], this molecule displayed an Activity of 8.06 µM.

(Values after ChEMBL document CHEMBL5523764, “Discovery of NO Donor-Aurovertin Hybrids as Dual Ferroptosis and Apoptosis Inducers for Treating Triple Negative Breast Cancer” (J Med Chem, 2024).)
